The test system of one data set is catalepsy. The data set is described as follows: Catalepsy. The data set is classed as in vivo. To be noted: 400 and 600 mg/kg.
Data set [1] has as its system number of escapes the animal made in 5 minutes. The data set is described as follows: Escape test, Table 3. The data set is classed as in vivo, mouse. The settings on record: Mus musculus, po, 5 min, read-out: % of activity (variation of the number of escapes). From the text:
The products of the invention were always administered orally in 6% gum base.
The notation NS signifies that the difference between the results noted for the product and the results noted for the excipient alone is not significant at the threshold 0.05 according to the Student t Test.

A further data set concerns phenylbenzoquinone (PBQ). The data set is described as follows: Analgesic activity using phenylbenzoquinone (PBQ) as noxious agent, Table 2. In kind it is in vivo, male Swiss mouse. To be noted: Mus musculus. Put shortly:
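Male Swiss mice were dosed with test products suspended in 6% gum base. Analgesic activity is given as % versus dose in mg/kg.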

Data set [2] has as its system number of displacements of the animal. The data set is described as follows: Four plates test (anxiolytic activity), Table 5. In kind it is in vivo. To be noted: oral, mouse. An outline of the steps:
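Mouse four-plates anxiolytic test with compounds given orally in 6% gum base. Read-out is percent increase in the number of displacements of the animal, by dose in mg/kg.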

A short description of data set [3]: Oral toxicity (mortality) in the mouse, Table 1. In kind it is in vivo. To be noted: mouse, in vivo, po, 1000 mg/kg, Swiss mice, 14 days. Put shortly: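 Groups of 5 male and 5 female specific-pathogen-free Swiss mice, fasted 24 hours, dosed intragastrically in 6% gum arabic at 0.1 ml per 10 g body weight. Mortality percentage was recorded at 14 days as a function of dose.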

Data set [4] has as its system trembling induced by oxotremorine. The experiment in a line: Antagonism of trembling induced by oxotremorine, Table 7. In kind it is in vivo. To be noted: po, read-out: % of inhibition of trembling induced by oxotremorine. Put shortly:
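Animal test of antagonism of oxotremorine-induced trembling; compounds given orally in 6% gum base. Value is % inhibition of trembling at each dose in mg/kg.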

For data set [5], the system named is stereotype induced by apomorphine. The experiment in a line: Antagonism of the stereotype induced by apomorphine, Table 4. The data set is classed as in vivo. From the text: The psychotropic profile of the present invention products has been characterized with the animals in numerous tests some of whose results are shown hereinafter. The products of the invention were always administered orally in 6% gum base.
% of activity vis-a-vis the stereotype
induced by apomorphine as a function of the
administered dose expressed in mg/kg

For the compound `CN(C)CCc1cc2c(cc1N=CC=Cc1ccccc1)OCO2` [COR 01 176], the catalepsy result with catalepsy is “slight catalepsy”. Besides, in data set [1], the change in vivo at 0.5 mg/kg is -29%, the change in vivo at 1 mg/kg is -40%, the change in vivo at 3 mg/kg was -39% and the change in vivo at 5 mg/kg is -33%. In data set [1], the change in vivo at 25 mg/kg was -32%, the change in vivo at 50 mg/kg is -37%, the change in vivo at 100 mg/kg was -33% and the change in vivo at 200 mg/kg was -43%. In addition, the inhibition in vivo at 100 mg/kg with phenylbenzoquinone (PBQ) (read-out: % of analgesic activity, 100 mg/kg, male Swiss mouse, PBQ) came out at 23%. Also, in the data set on phenylbenzoquinone (PBQ) (read-out: % of analgesic activity, 200 mg/kg, male Swiss mouse, PBQ), the inhibition in vivo at 200 mg/kg was 39%. The “% of increase in the number of displacements of the animal” value (from here on “% of increase”) in data set [2] (3 mg/kg) is “+101%”. In addition, the “% of increase” value in data set [2] (5 mg/kg) is listed as “+117%”. The “% of increase” value in data set [2] (10 mg/kg) is “+72%”. In data set [2] (20 mg/kg), the “% of increase” value was “+72%”. Also, the “% of increase” value in data set [2] (25 mg/kg) is “+66%”. For the same compound, the mortality at 336 h in data set [3] came to 0%. Further, in data set [4], the change in vivo at 50 mg/kg is -40%, the change in vivo at 100 mg/kg was -50% and the change in vivo at 200 mg/kg was -20%. Besides, in data set [5] (200 mg/kg, oral), the “% of activity vis-a-vis the stereotype induced by apomorphine” value is -64%. In addition, the “antagonism vis-a-vis the stereotype with apomorphine” value in data set [5] (in words) is on record as “manifest an antagonism”.

The record behind these values is US4333930A, “Orthoarylideneaminophenethylamines and pharmaceutical compositions” (priority 1980, dated 1982).
